# Square brackets hold non-standard residues; d marks the D form. Peptide text beside a SMILES is read from it. Phe(4-NH2) = Nc1ccc(C[C@H](N)C(=O)O)cc1; 1Nal = N[C@@H](Cc1cccc2ccccc12)C(=O)O; Cha = N[C@@H](CC1CCCCC1)C(=O)O; GABA = NCCCC(=O)O; βAla = NCCC(=O)O
# System: C. albicans (CA-1, Strain SLU-1)
# Assay: Radial diffusion assay
# Type: cell-based, Candida albicans
# Conditions: HPLC-purified peptide; nanomoles required to achieve a net 30 mm^2 zone (log titration curve)
# Outline: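 Yeast at 1×10^6 CFU/mL in agarose underlayer (3% Sabouraud, 10 mM sodium phosphate pH 7.4); 2-fold peptide dilutions in D-PBS from ~1 mg/mL loaded into wells, 3 h at 37° C, then nutrient overlayer overnight. Value: pmol/well giving 30 mm^2 net clear zone, by PROBIT regression.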
row,Compound,"Plate Assay (nmol), pure peptide activity [nmol]"
1,H-KWLIQL-NH2 [compound 315],>12.853
2,H-VKWLIQLFHKK-NH2 [Peptide 289],0.68

# Same assay, conditions: crude peptide; nanomoles required to achieve a net 30 mm^2 zone (log titration curve)
row,Compound,"Plate Assay (nmol), crude peptide activity [nmol]"
1,H-LIQLFHKK-NH2 [Peptide 304],>8.290
2,H-KWLIQL-NH2 [compound 315],>5.069
3,H-SKVKWLIQL-NH2 [Peptide 294],>4.634
4,H-VKWLIQLFHKK-NH2 [Peptide 289],1.542

# Same assay, conditions: pmoles of peptide added to well to achieve a 30 mm^2 zone, PROBIT analysis; crude or purified (P′) peptide
row,Compound,C. albicans pmol/30 mm^2 zone
1,CC[C@H](C)[C@H](NC(=O)[C@H](CC(C)C)NC(=O)[C@H](Cc1c[nH]c2ccccc12)NC(=O)[C@H](Cc1ccc(N)cc1)NC(=O)[C@@H](NC(=O)[C@H](CCCCN)NC(=O)[C@H](CO)NC(=O)[C@@H](N)CCCCN)C(C)C)C(=O)N[C@@H](CCC(N)=O)C(=O)N[C@@H](CC(C)C)C(=O)N[C@@H](Cc1ccccc1)C(=O)N[C@@H](Cc1cccc2ccccc12)C(=O)N[C@@H](CCCCN)C(=O)N[C@@H](CCCCN)C(N)=O [XMP.233] (H-KSKV[Phe(4-NH2)]WLIQLF[1Nal]KK-NH2),b (No detectable activity up to 5 μg/well)
2,H-KSKVGWLIFLFHKKKSKVGWLIFLFHKK-NH2 [XMP.275],b (No detectable activity up to 5 μg/well)
3,H-KSKAGWLIQLFHKK-NH2 [XMP.34],319 pmol/30 mm^2 zone
4,H-KSKVGWLIRLFHKK-NH2 [XMP.265],"2,996 pmol/30 mm^2 zone"
5,H-KSKVKFLIKLFHKK-NH2 [XMP.283],"1,336 pmol/30 mm^2 zone"
6,CC[C@H](C)[C@H](NC(=O)[C@H](CC(C)C)NC(=O)[C@H](Cc1c[nH]c2ccccc12)NC(=O)CNC(=O)[C@@H](NC(=O)[C@H](CCCCN)NC(=O)[C@H](CO)NC(=O)[C@@H](N)CCCCN)C(C)C)C(=O)N[C@@H](Cc1ccc(N)cc1)C(=O)N[C@@H](CC(C)C)C(=O)N[C@@H](Cc1c[nH]c2ccccc12)C(=O)N[C@@H](Cc1c[nH]cn1)C(=O)N[C@@H](CCCCN)C(=O)N[C@@H](CCCCN)C(N)=O [XMP.239] (H-KSKVGWLI[Phe(4-NH2)]LWHKK-NH2),">2,802 pmol/30 mm^2 zone"
7,CC[C@H](C)[C@H](NC(=O)[C@H](CC(C)C)NC(=O)[C@H](Cc1cccc2ccccc12)NC(=O)[C@H](Cc1ccc(N)cc1)NC(=O)[C@@H](NC(=O)[C@H](CCCCN)NC(=O)[C@H](CO)NC(=O)[C@@H](N)CCCCN)C(C)C)C(=O)N[C@@H](CCC(N)=O)C(=O)N[C@@H](CC(C)C)C(=O)N[C@@H](Cc1ccccc1)C(=O)N[C@@H](Cc1c[nH]cn1)C(=O)N[C@@H](CCCCN)C(=O)N[C@@H](CCCCN)C(N)=O [XMP.225] (H-KSKV[Phe(4-NH2)][1Nal]LIQLFHKK-NH2),">2,506 pmol/30 mm^2 zone"
8,H-KAKVGWLIQLFHKK-NH2 [XMP.32],294 pmol/30 mm^2 zone
9,CC[C@H](C)[C@H](NC(=O)[C@H](CC(C)C)NC(=O)[C@H](Cc1ccc(N)cc1)NC(=O)[C@H](CCCCN)NC(=O)[C@@H](N)CCCCN)C(=O)N[C@@H](CCC(N)=O)C(=O)N[C@@H](CC(C)C)C(=O)N[C@@H](CCCCN)C(=O)N[C@@H](CCCCN)C(N)=O [XMP.346] (H-KK[Phe(4-NH2)]LIQLKK-NH2),640 pmol/30 mm^2 zone
10,H-KSKVWLIQLFHKK-NH2 [XMP.11],645 pmol/30 mm^2 zone
11,CC[C@H](C)[C@H](NC(=O)[C@H](CC(C)C)NC(=O)[C@H](Cc1cccc2ccccc12)NC(=O)CNC(=O)[C@@H](NC(=O)[C@H](CCCCN)NC(=O)[C@H](CO)NC(=O)[C@@H](N)CCCCN)C(C)C)C(=O)N[C@@H](CCC(N)=O)C(=O)N[C@@H](CC(C)C)C(=O)N[C@@H](Cc1c[nH]c2ccccc12)C(=O)N[C@@H](Cc1c[nH]cn1)C(=O)N[C@@H](CCCCN)C(=O)N[C@@H](CCCCN)C(N)=O [XMP.226] (H-KSKVG[1Nal]LIQLWHKK-NH2),">2,597 pmol/30 mm^2 zone"
12,CC[C@H](C)[C@H](NC(=O)[C@H](CC(C)C)NC(=O)CCCNC(=O)CNC(=O)[C@@H](NC(=O)[C@H](CCCCN)NC(=O)[C@H](CO)NC(=O)[C@@H](N)CCCCN)C(C)C)C(=O)N[C@@H](CCC(N)=O)C(=O)N[C@@H](CC(C)C)C(=O)N[C@@H](Cc1ccccc1)C(=O)N[C@@H](Cc1c[nH]cn1)C(=O)N[C@@H](CCCCN)C(=O)N[C@@H](CCCCN)C(N)=O [XMP.256] (H-KSKVG[GABA]LIQLFHKK-NH2),b (No detectable activity up to 5 μg/well)
13,CC[C@H](C)[C@H](NC(=O)[C@H](CC(C)C)NC(=O)CCNC(=O)CNC(=O)[C@@H](NC(=O)[C@H](CCCCN)NC(=O)[C@H](CO)NC(=O)[C@@H](N)CCCCN)C(C)C)C(=O)N[C@@H](CCC(N)=O)C(=O)N[C@@H](CC(C)C)C(=O)N[C@@H](Cc1ccccc1)C(=O)N[C@@H](Cc1c[nH]cn1)C(=O)N[C@@H](CCCCN)C(=O)N[C@@H](CCCCN)C(N)=O [XMP.254] (H-KSKVG[βAla]LIQLFHKK-NH2),"1,040 pmol/30 mm^2 zone"
14,CC[C@H](C)[C@H](NC(=O)[C@H](CC(C)C)NC(=O)[C@H](CC1CCCCC1)NC(=O)CNC(=O)[C@@H](NC(=O)[C@H](CCCCN)NC(=O)[C@H](CO)NC(=O)[C@@H](N)CCCCN)C(C)C)C(=O)N[C@@H](CCC(N)=O)C(=O)N[C@@H](CC(C)C)C(=O)N[C@@H](Cc1ccccc1)C(=O)N[C@@H](Cc1c[nH]cn1)C(=O)N[C@@H](CCCCN)C(=O)N[C@@H](CCCCN)C(N)=O [XMP.144] (H-KSKVG[Cha]LIQLFHKK-NH2),695 pmol/30 mm^2 zone

# Same assay, conditions: pmoles of peptide added to well to achieve a 30 mm^2 zone, PROBIT analysis; crude or purified (P′) peptide; listed as XMP.225P′
row,Compound,C. albicans pmol/30 mm^2 zone
1,CC[C@H](C)[C@H](NC(=O)[C@H](CC(C)C)NC(=O)[C@H](Cc1cccc2ccccc12)NC(=O)[C@H](Cc1ccc(N)cc1)NC(=O)[C@@H](NC(=O)[C@H](CCCCN)NC(=O)[C@H](CO)NC(=O)[C@@H](N)CCCCN)C(C)C)C(=O)N[C@@H](CCC(N)=O)C(=O)N[C@@H](CC(C)C)C(=O)N[C@@H](Cc1ccccc1)C(=O)N[C@@H](Cc1c[nH]cn1)C(=O)N[C@@H](CCCCN)C(=O)N[C@@H](CCCCN)C(N)=O [XMP.225] (H-KSKV[Phe(4-NH2)][1Nal]LIQLFHKK-NH2),">2,736 pmol/30 mm^2 zone"

# Same assay, conditions: pmoles of peptide added to well to achieve a 30 mm^2 zone, PROBIT analysis; crude or purified (P′) peptide; listed as XMP.226P′
row,Compound,C. albicans pmol/30 mm^2 zone
1,CC[C@H](C)[C@H](NC(=O)[C@H](CC(C)C)NC(=O)[C@H](Cc1cccc2ccccc12)NC(=O)CNC(=O)[C@@H](NC(=O)[C@H](CCCCN)NC(=O)[C@H](CO)NC(=O)[C@@H](N)CCCCN)C(C)C)C(=O)N[C@@H](CCC(N)=O)C(=O)N[C@@H](CC(C)C)C(=O)N[C@@H](Cc1c[nH]c2ccccc12)C(=O)N[C@@H](Cc1c[nH]cn1)C(=O)N[C@@H](CCCCN)C(=O)N[C@@H](CCCCN)C(N)=O [XMP.226] (H-KSKVG[1Nal]LIQLWHKK-NH2),">2,895 pmol/30 mm^2 zone"
